CN101784271A, “孕激素和(6s)-5-甲基四氢叶酸的组合在治疗子宫内膜异位症并同时减轻治疗副作用以及降低怀孕初期的先天畸形的风险中的应用” (priority 2007, dated 2008)

Columns and labels:
[1] = Clinical study in endometriosis patients, pain by visual analogue scale (VAS); format: in vivo, human; details: over 6 months
[2] = cited from earlier work
[3] = attributed to partial androgenic action, not progestational activity; cited from earlier work
ovulation (排卵) = details: daily dose; no test or source given; cited from earlier work
[4] = 2 mg dienogest daily, 24 weeks, endometriosis patients

SMILES: C[C@]12CCC3=C4CCC(=O)C=C4CC[C@H]3[C@@H]1CC[C@@]2(O)CC#N [DNG]
- change in pain (VAS) at end of treatment compared with start of study ([1]; DNG oral 2 mg/d (124 patients) or LA 3.75 mg s.c. every 4 weeks (128 patients), endometriosis diagnosed by laparoscopy): -47.5 mm
- statistical comparison of efficacy, DNG versus LA ([1]; DNG oral 2 mg/d vs LA 3.75 mg s.c. every 4 weeks): 不劣于LA
- intolerable menstruation [2, 4]: 没有报道不可耐受的月经
- patients reporting irregular menstruation [2, 4]: ≤ 90%
- treatment result compared with danazol or GnRH agonist [2, 4]: 相当

SMILES: C#C[C@]1(O)CC[C@H]2[C@@H]3CCC4=CC(=O)CC[C@@H]4[C@H]3CC[C@@]21CC [左炔诺孕酮]
- effect on bone metabolism [3]: 对骨代谢的正面影响

SMILES: C#C[C@]1(O)CC[C@H]2[C@@H]3CCC4=Cc5oncc5C[C@]4(C)[C@H]3CC[C@@]21C [达那唑]
- side effects of standard endometriosis treatment ([2]; human, in vivo): 显著的雄激素效应

SMILES: CC(=O)O[C@]1(C(C)=O)CC[C@H]2[C@@H]3C=C(Cl)C4=CC(=O)CC[C@]4(C)[C@H]3CC[C@@]21C [醋酸氯地孕酮]
- ovulation inhibition dose (ovulation (排卵)): 1.7 mg

SMILES: CC(=O)O[C@]1(C(C)=O)CC[C@H]2[C@@H]3C=C(Cl)C4=CC(=O)[C@@H]5C[C@@H]5[C@]4(C)[C@H]3CC[C@@]21C [醋酸环丙孕酮]
- ovulation inhibition dose (ovulation (排卵)): 1 mg
